# Entries after “also recorded” stand apart in the source; their conditions may differ. Square brackets hold non-standard residues; d marks the D form. Ends that are not written are not given here. Peptide text beside a SMILES is read from it.
# Tests used:
# [1] = In vivo toxicity of peptides alone; set-up: species or system athymic nude mice; details: for body weight / signs of distress / survival: 90 mg/Kg ip on day 5, day 10 and day 15; for survival: after 30 days; for signs of toxicity: three ip doses of 90 mg/Kg, 90 mg/kg
# Protocol: MDA-MB-231 cells were implanted orthotopically into the second thoracic mammary fat pad of nude mice (n = 5). […] The control mice received vehicle only. B, at the end of the experiments, representative tumors were removed and photographed. […] The tumor sizes were measured by a digital caliper and shown as mean volume ± SDs every alternate day for 30 days. […] The statistical analysis was performed on GraphPad Prism 9.4.0. […] E–H, Western blots of cell lysates prepared from the tumors of untreated tumor (Vehicle) versus LA3IK and RP-7 for apoptosis-associated proteins. Number of tumors taken for study = 4 per group. Densitometry was determined and normalized to β-actin. Bar graphs are densitometric data (means ± SD). Data analyzed by one-way ANOVA. ∗p < 0.05,∗∗p <0.01 and ∗∗∗p < 0.001. Full-length representative blots are in Figure S8(2). […] The mice were monitored for changes in body weights as a surrogate marker for toxicity.
# Cleaved caspase-3 plays a pivotal role in transmitting apoptotic signals through its enzymatic actions on downstream targets, including PARP and other substrates. PARP, which is an ADP-ribosylating enzyme, is essential for initiating various types of DNA repair processes ([29]). However, when it is cleaved by activated caspase-3, PARP loses its functionality, leading to the suppression of DNA repair mechanisms. This, in turn, may promote cell death through both caspase-dependent and caspase-independent pathways of apoptosis ([30]).
# [2] = Mouse liver microsome stability; details: for half-life at 2 μM / remaining at 2 h, 2 μM: male; for half-life at 2 μM: ICR/CD-1, mouse; for remaining at 2 h, 2 μM: Institute of Cancer Research/CD-1, mouse
# Protocol: An NADPH-regenerating system (1.7 mg/ml NADP, 7.8 mg/ml glucose-6-phosphate, 6 U/ml glucose-6-phosphate dehydrogenase in 2% w/v NaHCO3/10 mm MgCl2) was added for analysis of Phase I metabolism after heating both the regenerating solution and the sample tubes to 37 °C for 5 min in a 37 °C shaking water bath. The incubation was continued and at varying time points after addition of phase I cofactors, the reaction was stopped by the addition of 0.5 ml of acetonitrile containing IS and formic acid such that the final concentration of IS was 100 ng/ml and acid was 0.1%. Time 0 samples were stopped with the acetonitrile solution while still on ice prior to addition of the NADPH regenerating system and compound, which were subsequently added. The samples were incubated for 10 min at room temperature and then spun at 16,100g for 5 min in a microcentrifuge at 4 °C. The supernatant was analyzed by LC-MS/MS. The method described by McNaney et al. was used with modification for determination of metabolic stability half-life by substrate depletion ([59]). A “% remaining” value was used to assess the metabolic stability of a compound over time. The LC-MS/MS peak area of the incubated sample at each time point was divided by the LC-MS/MS peak area of the time 0 (T0) sample and multiplied by 100. The natural Log (LN) of the % remaining of compound was then plotted versus time (in min) and a linear regression curve was plotted going through y-intercept at LN (100).
# MDA-MB-231 cells [3] = assay: Wound healing assay; assay type: cell-based; details: equimolar peptide concentrations; compared to untreated cells
# Protocol: (§1) The wound healing assay was performed using two breast cancer cell lines, MDA-MB-231 and MCF-7, and two prostate cancer cell lines, PC-3 and DU-145, to evaluate the antimigratory capacity of the peptides. […] The cells were grown to approximately 80% confluency in 12-well tissue culture plates, and a cell-free area was created by scraping the monolayer. The peptides were added, and the cells were incubated at 37 °C with 5% CO2 for 24 h. Wound closure was assessed by imaging the wounds at 0 and 24 h, and the wound areas were quantified using ImageJ software (https://imagej.net/ij/). In the transwell invasion assay, MDA-MB-231 cells were serum starved for 4 h followed by a pretreatment with increasing concentrations of each peptide in a 0.1% serum-containing DMEM for 24 h. The cells were then trypsinized, resuspended in same media for the second treatment of peptides, and counted. Next, 40,000 cells were resuspended in 0.1% serum containing DMEM and added to the upper chamber of Transwell plates (Corning Life Sciences) with a polyethylene terephthalate membrane (6.4 mm diameter, 8 μm pore size). The bottom chambers were filled with DMEM containing 10% FBS as a chemoattractant. The transwell plates were incubated at 37 °C with 5% CO2 for 24 h to allow the invasion of cells through the membrane. The invaded cells on the lower side of the membrane were fixed with 4% paraformaldehyde for 15 min, followed by a PBS wash. The membrane inserts were further fixed with ice-cold methanol for 20 min and stained with 0.25% (w/v) crystal violet. After incubation, the noninvasive cells on the upper surface of the membrane were gently removed using a cotton swab. Random fields were chosen for imaging, and the number of invaded cells was counted using ImageJ software. The results were expressed as the average number of invaded cells compared with the control.
# PC-3 = assay type: cell-based; details: MTT, 48 hours
# Protocol: (§2) MDA-MB-231, MCF-7, DU-145, PC-3, and NIH-3T3 cell lines were procured from the American Type Culture Collection and used within ten consecutive passages to ensure consistent cell behavior. MDA-MB-231, MCF-7, and NIH-3T3 cells were maintained at 37 °C and 5% CO2 in Dulbecco's modified Eagle's medium (DMEM) high glucose (Hyclone) supplemented with 10% fetal bovine serum (FBS) and 1% Antibiotic-Antimycotic (Gibco), while DU-145 and PC-3 cells were grown in RPMI-1640 supplemented with the same concentration of FBS and Antibiotic-Antimycotic. The media was replenished every 2 days. Cells were checked for mycoplasma at regular intervals using a PCR-based Mycoplasma detection kit plasmocin prophylactic (InvivoGen). In all experiments, cells were maintained in serum-free DMEM for 6 h before peptide treatment. Peptide treatment was done in the media containing 0.1% fetal bovine serum for 48 h in all the experiments unless otherwise stated.
# (§3) Cell viability was determined by 3-[4,5-dimethylthiazol-2-yl]-2,5 diphenyl tetrazolium bromide (MTT) assay as described earlier ([52]). ProTox-II "Prediction of Toxicity of Chemicals" web server was used for toxicology assessment ([19]). See the Supporting Information for full experimental details.
# (§4) Full Experimental Method for Cell Viability Assay:
# (§5) Cell viability of murine NIH- 3T3 cells, as well as MDA- MB -231 , MC F-7, PC- 3, and DU-145 cells, wa s assessed through the MT T assay as described previously(1). Approximately
# (§6) 5000 cells per well were seeded in a 96-well plate and allowed to incubate overnight for attachment. Following attachment, the growth medium was replaced wit h a fresh medium
# (§7) containing serial dilutions of peptides. The cells we re then incubated for 48 hours in a 5% CO2 incubator . After incubation, 10 μl of a 5 mg/mL MT T solution was introduced to each
# (§8) well and left to incubate for an additional 2 hours . Subsequently, the entire medium, along wit h the MT T solution, was aspirated, and the remaining formazan crystals were dissolved
# (§9) in 200 μl of DMSO. The absorbance was measured at 595 nm using a Biotek Synergy 2 Plate Reader. […]
# (§10) ProTox-II "Prediction of Toxicity of Chemicals" we b server was used for toxicology assessment. […]
# DU-145 = assay type: cell-based; details: MTT, 48 hours
# Protocol: as §2, §3, §4, §5, §6, §7, §8, §9, §10
# MCF-7 = assay type: cell-based; details: MTT, 48 hours
# Protocol: as §2, §3, §4, §5, §6, §7, §8, §9, §10
# MDA-MB-231 = assay type: cell-based; details: MTT, 48 hours
# Protocol: as §2, §3, §4, §5, §6, §7, §8, §9, §10
# MDA-MB-231 cells [4] = assay: Transwell invasion assay; assay type: cell-based; details: 24 h
# Protocol: as §1
# NIH-3T3 = assay type: cell-based, murine; details: MTT, 48 hours; normal cells
# Protocol: as §2, §3, §4, §5, §6, §7, §8, §9, §10
# MDA-MB-231 cells [5] = assay: Western blot of MIEN1 signaling pathway proteins; assay type: cell-based; details: mean values of immunoblot densitometry
# Protocol: Cells were exposed to the peptides and subjected to Western blot analysis with the indicated antibodies. […] Cytoplasmic and nuclear cell lysate extracts of EGF only and EGF plus peptide-treated cells were probed for p65 and p50. Lamin A/C and β-actin were used as nuclear and cytoplasmic loading control respectively. Densitometry was determined with immunoblots (N = 3) and normalized to total protein or β-actin for whole cell lysates and cytoplasmic fraction of peptide-treated MDA-MB-231 cells. In case of nuclear lysates, the immunoblots were normalized with Lamin A/C. Bar graphs are densitometric data (means ± SD). […] EGF concentration: (10 ng/ml); Peptide concentration: 90 μM. EGF, epidermal growth factor; MIEN1, migration and invasion enhancer 1; NF-κB, nuclear factor kappa B.
# Western blot analysis was performed according to standard protocols to assess the effects of MIEN1-derived peptides and their analogs on MDA-MB-231 cells and DU-145 cells. Cell lysates were prepared using radioimmunoprecipitation assay buffer and quantified for protein content by bicinchoninic acid method. […] Protein blocking with 5% bovine serum albumin was followed by incubation with primary antibodies specific to various proteins at 4 °C for 8 to 10 h. The membrane was then washed three times in Tris Buffered Saline with Tween 20 and incubated with the appropriate secondary antibody. Protein bands were visualized using the Alpha Innotech chemiluminescent detection system. In case of MDA-MB-231 cells, cytoplasmic and nuclear extracts were isolated to investigate the effects of peptides and/or EGF stimulation. Prior to exposure to the cells, the test peptides (90 μM) were incubated with EGF (10 ng/ml) in media at 4 °C for 15 min. The untreated MDA-MB-231 cells received EGF alone at the same concentration. The isolation of cytoplasmic and nuclear fractions was performed using the Subcellular Protein Fractionation Kit for Cultured Cells from Thermo Fisher Scientific (cat #78840) following the manufacturer's guidelines. For Western blot experiments, 20 μg of purified cytoplasmic and nuclear fraction was used.
# Densitometry analysis of Western blot data was conducted using the AlphaView-FluorChem HD2 software of the Alpha Innotech chemiluminescent detection system (https://www.cambridgescientific.com/product/alpha-innotech-fluorchem-hd2-gel-imaging-system). To quantify band intensities, a uniform rectangle was drawn around each band, and background subtraction was applied to determine the total pixel density for each lane. Further calculations, including the determination of the ratio of phosphorylated proteins to total proteins or other loading controls, were carried out using Microsoft Excel. […]
# [6] = Pharmacokinetic studies in CD1 mice; details: in vivo, iv, 5 mg/kg
Compound,body weight / signs of distress [1],survival [1],signs of toxicity [1],inhibition of migration (MDA-MB-231 cells [3]),IC50 (PC-3) [µM],IC50 (DU-145) [µM],IC50 (MCF-7) [µM],IC50 (MDA-MB-231) [µM],number of invaded MDA-MB-231 cells / inhibition of invasion (MDA-MB-231 cells [4]),IC50 (NIH-3T3) [µM],"remaining at 2 h, 2 μM ([2]; microsomes, pH 7.5) [%]",also measured
"CC[C@H](C)[C@H](NC(=O)[C@H](C)NC(=O)[C@H](CC(C)C)NC(C)=O)C(=O)N[C@@H](C)C(=O)N[C@H](C(=O)N[C@@H](CCCCN)C(N)=O)C(C)C [LA3IK, LAIAVK]",No body weight loss or other signs of distress,All mice (N = 3) were alive,did not display any signs of toxicity; also recorded: no significant toxicity,,,,,,,,,"half-life at 2 μM ([2]; liver microsomes, pH 7.5): > 2 h; remaining at 2 h, 2 μM ([2]; liver microsomes, pH 7.5): 83.7%"
"LASAVK [LA-6, LASAVK]",,,,limited inhibition,> 600,> 600,> 600,> 600,limited inhibition,> 600,,
Ac-RPPCVIL-NH2 [RP-7],No body weight loss or other signs of distress,All mice (N = 3) were alive,did not display any signs of toxicity; also recorded: no significant toxicity,,113 ± 8.02,121 ± 7.08,110 ± 4.23,139 ± 8.41,,221 ± 6.23,17.7,"half-life at 2 μM ([2]; microsomes, pH 7.5, Mouse Liver Microsome T1/2, 2 μM peptide): 0.872 h; half-life at 2 μM ([2]; microsomes, pH 7.5, Mouse Liver Microsome T ½ (h), 2 μM peptide, 0.5 mg/ml microsome protein, NADPH-regenerating system): 0.87 h"
CC[C@@H](C)[C@@H](NC(=O)[C@H](NC(=O)[C@@H](CS)NC(=O)[C@H]1CCCN1C(=O)[C@H]1CCCN1C(=O)[C@@H](CCCNC(=N)N)NC(C)=O)C(C)C)C(=O)N[C@H](CC(C)C)C(N)=O [D-RP-7] (Ac-[dR][dP][dP][dC][dV][dI][dL]-NH2),,,,,101 ± 5.73,122 ± 6.56,90 ± 10.3,95 ± 7.71,,210 ± 8.41,64.4,"greater inhibition of FAK phosphorylation than L-peptide counterpart (MDA-MB-231 cells [5]): 24.2%; greater inhibition of SRC phosphorylation than L-peptide counterpart (MDA-MB-231 cells [5]): 29.5%; MRT ([6]; female, CD1, mouse): 5.7 h; Tmax ([6]; female, CD1, mouse): 4.8 min; Vd ([6]; female, CD1, mouse): 1700 L/kg; Cmax ([6]; mouse): 48 ng/mL; Vd ([6]; mouse): 1310 L/kg; clearance ([6]; mouse): 1420 mL/min/kg; half-life ([6]; mouse): 13.8 h; half-life ([2]; mouse, microsomes, Mouse Liver Microsome T ½ (h), 2 μM peptide, 0.5 mg/ml microsome protein, NADPH-regenerating system): > 2 h"
Ac-SRPPCVIL-NH2 [SR-8],,,,limited inhibition,> 600,> 600,141 ± 12.9,528.3 ± 4.57,limited inhibition,> 600,,
CC[C@H](C)[C@H](NC(=O)[C@@H](NC(=O)[C@H](CS)NC(=O)[C@@H]1CCCN1C(=O)[C@@H]1CCCN1C(=O)[C@H](CCCNC(=N)N)NC(=O)[C@H](CS)NC(C)=O)C(C)C)C(=O)N[C@@H](CC(C)C)C(N)=O [CR-8] (Ac-CRPPCVIL-NH2),,,,limited inhibition,,,,,limited inhibition,,,
